Measured values taken from patent US20170211035A1, “BIOLOGICAL INDICATORS” (American Sterilizer Company, priority 2016, published 2017).

Test system: Geobacillus stearothermophilus spores
Experiment: Steam resistance of biological indicators in the BIER vessel (kill kinetics, log population versus time)
Assay type: cell-based
Protocol: In the following examples, the test organism is prepared using a standard lot of Geobacillus stearothermophilus spores suspended in an aqueous carbohydrate solution. In these examples, xylose and dextrose are used as the carbohydrates. Comparative examples are also provided wherein the carbohydrate is not used. In each case, the aqueous suspension is placed in a vial and allowed to dry. The resulting biological indicators are resistance tested. The tests show an unexpected decrease in resistance when the biological indicators are derived from a carbohydrate solution as compared to when no carbohydrate is used.
In these examples, the biological indicators are tested for resistance to steam sterilization using the biological indicator evaluation resistor (BIER) vessel depicted in FIG. 5A. Referring to FIG. 5A, BIER vessel 300 includes chamber 310, door 320, and interior shelf 330 for placement of the biological indicators. Steam, heat and pressure enters chamber 310 as indicated by arrow 340. Vent 350 is provided for the rapid release of steam, heat and pressure. Operation is controlled by a computerized processor, sensors, and valves designed to introduce rapid changes to the environment within the chamber 310.
Referring to FIG. 5B, the process cycle used in the BIER vessel includes six phases, these phases being numbered as phases 1-6 in FIG. 5B. These phases can be described as follows:
The term “log population” refers to the log of the number of colony-forming units (cfu) of viable spores in the test sample. For example, a log population of 6 refers to 10^6 (or 1,000,000) viable colony-forming units of spores in the test sample.

Structure (SMILES): O=C[C@H](O)[C@@H](O)[C@H](O)CO [xylose]
- resistance (time) (steam at 121° C., spores dried from suspension in 0.5M carbohydrate solution): approximately 4 minutes
- time for a 6 log reduction (kill kinetics) (steam at 121° C., spores dried from suspension in 1.67 M xylose solution): approximately 5 minutes
- resistance (time) (steam at 132° C., spores dried from suspension in xylose solution as in Example 1 (1.67 M)): approximately 1.5 minutes
